Literature values as cited in patent publication US20180055752A1, “TOPICAL COMPOSITIONS TO REDUCE HAIR GROWTH” (The Regents of the University of California, priority 2016, published 2018).
“Also recorded” adds a separate entry of the source. Like-named read-outs stand apart in the source and are kept apart here.

Key:
deer hair follicle = details: tolbutamide 1 mM
[1] = system: Kir6.2/SUR1 and SUR2B K-ATP channels
[2] = eight children treated for hypoglycemia of infancy
[3] = system: cultured human hair follicles

SMILES: COc1ccc(Cl)cc1C(=O)NCCc1ccc(S(=O)(=O)NC(=O)NC2CCCCC2)cc1 [glibenclamide]
- inhibition of hair follicle growth (deer hair follicle; glibenclamide at a single concentration): did not inhibit deer hair follicle growth
- K-ATP channel subtype selectivity and potency [1]: nonselectively blocks both SUR1 and SUR2B forms with high affinity; also recorded: non-selectively blocks both SUR1 and SUR2B forms with high affinity

SMILES: CC1=NS(=O)(=O)c2cc(Cl)ccc2N1 [diazoxide]
- hypertrichosis as side effect [2]: all developed hypertrichosis

SMILES: CCCCNC(=O)NS(=O)(=O)c1ccc(C)cc1 [tolbutamide]
- effect on anagen [3]: shorten anagen
- effect on hair follicle growth stimulated by minoxidil / diazoxide (deer hair follicle; 10 μM minoxidil): abolished the effect of 10 μM minoxidil, and diazoxide
- K-ATP channel subtype selectivity and potency [1]: selectively inhibits Kir6.2/SUR1 K-ATP channels with low potency
- K-ATP channel subtype selectivity and potency ([1]; listed as Tolbutamide): selectively inhibits Kir6.2/SUR1 KATP channels with low potency
